These are literature values, as cited in patent publication US4761405A, “Antagonists of specific excitatory amino acid neurotransmitter receptors having increased potency” (priority 1987, dated 1988).

The test system of data set [1] is neurotoxic and convulsive actions of NMDA, IBO and Quin. The settings on record: in vivo; cited from earlier work.
The test system of data set [2] is photically-induced myoclonus. The following applies: i.v.; baboon; cited from earlier work.
Another data set concerns ischemic brain damage. The settings on record: intrahippocampally; rodent carotid artery occlusion model; cited from earlier work.
Data set [3] has as its system electroshock-induced seizures. The settings on record: mice; cited from earlier work.
For data set [4], the system named is audiogenically-induced seizures. The settings on record: i.c.v. and i.v.; genetically susceptible mice; cited from earlier work.
Data set [5] deals with chemically-induced seizures. The following applies: rodents; cited from earlier work.

On to `N[C@H](CCCCCP(=O)(O)O)C(=O)O` [AP7, D(-)-2-amini-7-phosphonoheptanoic acid], for which the “Effect on neurotoxic and convulsive actions of NMDA, IBO and Quin (but not KA)” value in data set [1] is “interferring with the neurotoxic and convulsive actions of NMDA, the exogenous excitotoxin, IBO, and the endogenous excitotoxin Quin (but not KA)”. In addition, in data set [2], the “Effect on photically-induced myoclonus” value was “suppresses photically-induced myoclonus”. Besides, the “Effect on ischemic brain damage” value with ischemic brain damage is “markedly reduce or eliminate ischemic brain damage”. For the same compound, in data set [3], the “Effect on threshold current for electroshock-induced seizures” value is reported as “increased threshold current for electroshock-induced seizures”. In data set [4], the “Protection against audiogenically-induced seizures” value is on record as “protects against audiogenically-induced seizures”. For the same compound, the “Effect on chemically-induced seizures” value in data set [5] is reported as “prevents chemically-induced seizures”.
